Source: paper PMC12007089, “Applying Isothermal Titration Calorimetry and Saturation Transfer Difference-NMR to Study the Mode of Interaction of Flavan-3-ols with α-Amylase to Understand Their Impact on Starch Hydrolysis” (Journal of Agricultural and Food Chemistry, 2025)
Entries after “also recorded” stand apart in the source; their conditions may differ. Read-outs that look alike come from different tables or passages of the source. Each block holds one compound with its values, some of them ahead of it.

Assays:
[1] = target: T1, porcine pancreatic α-amylase (Sus scrofa, UniProt P00690); assay: CD spectroscopy, change in secondary structure of α-amylase; conditions: for impact on the secondary structure of α-amylase: 90 μM α-amylase, 600 μM flavan-3-ol; for α-helix / β-turn / β-sheet / random coil: α-amylase + polyphenol, 90 µM α-amylase, 600 µM polyphenol; for α-helix: α-amylase alone 8; for β-turn: α-amylase alone 12; for β-sheet: α-amylase alone 32; for random coil: α-amylase alone 48
T1 sequence (P00690 16-511): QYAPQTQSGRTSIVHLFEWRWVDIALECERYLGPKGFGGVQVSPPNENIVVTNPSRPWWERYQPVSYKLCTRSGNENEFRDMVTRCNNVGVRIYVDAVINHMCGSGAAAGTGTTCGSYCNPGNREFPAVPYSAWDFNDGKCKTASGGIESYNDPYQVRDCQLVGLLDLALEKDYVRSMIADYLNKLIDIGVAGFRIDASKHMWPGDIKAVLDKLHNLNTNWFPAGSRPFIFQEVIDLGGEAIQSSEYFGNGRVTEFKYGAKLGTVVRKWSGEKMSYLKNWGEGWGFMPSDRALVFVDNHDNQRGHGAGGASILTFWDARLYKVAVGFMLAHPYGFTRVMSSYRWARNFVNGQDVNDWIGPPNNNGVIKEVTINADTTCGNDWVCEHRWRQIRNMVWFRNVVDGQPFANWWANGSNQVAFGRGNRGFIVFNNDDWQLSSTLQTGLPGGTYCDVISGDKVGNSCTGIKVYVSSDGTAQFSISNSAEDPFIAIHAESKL
Protocol: CD spectra were recorded in the range of 240–190 nm with a bandwidth of 1 nm on a Jasco J-815 CD spectrometer equipped with a Peltier unit from Jasco PTC-4238 and a temperature control (F250, Julabo). For CD experiments, 20 μL respective dilutions of the stock solutions for α-amylase, EC, and PC B2 or mixtures of α-amylase and flavan-3-ol, obtained from the ITC cell after interactions experiments (see Section 2.7; 90 μM α-amylase and 600 μM EC/PC B2), were diluted with 60 μL of 0.2 M KCl and filled bubble-free into a cuvette with a light path of 0.1 mm (Hellma Analytics). At 273 K, 40 independent spectra were accumulated in a continuous scanning mode and a speed of 100 nm/min without baseline correction. Data analysis was performed in Excel according to Kaeswurm et al.[34]

α-amylase [2] = test system: α-amylase; parameters: method as in PMID 27132823; conditions: cited from earlier work
α-amylase [3] = target: α-amylase; parameters: method as in PMID 31496243; conditions: substrate Gal-G2-CNP, UV-based, cited from earlier work
α-amylase [4] = test system: α-amylase; parameters: method as in PMID 28618113; conditions: α-amylase concentration of 20 μM in the sample cell; cited from earlier work
α-amylase [5] = test system: α-amylase; parameters: method as in PMID 21495725; conditions: cited from earlier work
[6] = target: T1, porcine pancreatic α-amylase; assay: 1H NMR of aggregation of PC C1 with α-amylase; format: binding; conditions: for adsorption of PC C1 on the surface of α-amylase: 1 mM (0.75 μmol) PC C1; for PC C1 signal intensities after addition of α-amylase: 275 K
Protocol: ^1H NMR experiments were conducted to investigate the aggregation of PC C1 with α-amylase. First, 1 mM PC C1 (0.75 μmol) was measured, and then, α-amylase was added at concentrations of 10 and 20 μM. The relative decrease in intensity of PC C1 signals in the range of 6.866–7.040 ppm (E2′, H6′, B2′, B5′, E5′, E6′, and H5′) was used to calculate the proportion of PC C1 aggregated with α-amylase. Blank measurements were performed with 10 and 20 μM α-amylase dissolved in the same buffer without PC C1. Data were acquired using a Bruker Avance III HD 600 MHz NMR spectrometer equipped with a 5 mm BBFO probe (Smart Probe) with ATM and a z-gradient. Spectra were recorded at 275 K (2 °C) in 0.1 M phosphate buffer/0.04 M NaCl phosphate buffer, pH 7, in D2O:H2O (9:1). The pulse program zgesgp was used with a spectral width of 16 ppm, and all spectra were recorded with 512 scans, an acquisition time of 1.70 s, and a recycle delay (D1) of 1 s. Data were analyzed using TopSpin software (version 4.4.1, Bruker).

Compound: Oc1cc(O)c2c(c1)O[C@H](c1ccc(O)c(O)c1)[C@H](O)C2 [EC, (−)-Epicatechin]
impact on the secondary structure of α-amylase [1]: No significant impact; also recorded: did not induce significant changes | α-helix [1]: 14% | β-turn [1]: 15% | β-sheet [1]: 23% | random coil [1]: 48% | inhibition of α-amylase compared to other phenolic compounds and the apple extract (α-amylase [2]): weakest inhibition | Ki (α-amylase [3]; read-out: Kic): 88 ± 37 µM | Ki (α-amylase [3]; read-out: Kiu): 231 ± 45 µM | binding to α-amylase by ITC (α-amylase [4]): weak binder | reduction / decrease in α-amylase activity (α-amylase [5]): 10%

α-helix [1]: 14% | β-turn [1]: 15% | β-sheet [1]: 23% | random coil [1]: 48%
Compound: Oc1cc(O)c2c(c1)O[C@H](c1ccc(O)c(O)c1)[C@H](O)[C@H]2c1c(O)cc(O)c2c1O[C@H](c1ccc(O)c(O)c1)[C@H](O)C2 [PC B2, procyanidin B2]
impact on the secondary structure of α-amylase [1]: No significant impact; also recorded: did not induce significant changes

Compound: Oc1cc(O)c2c(c1)O[C@H](c1ccc(O)c(O)c1)[C@H](O)[C@H]2c1c(O)cc(O)c2c1O[C@H](c1ccc(O)c(O)c1)[C@H](O)[C@H]2c1c(O)cc(O)c2c1O[C@H](c1ccc(O)c(O)c1)[C@H](O)C2 [PC C1, procyanidin C1]
ratio of PC C1 to α-amylase ([6]; 10 μM α-amylase): 26 | adsorption of PC C1 on the surface of α-amylase ([6]; 10 μM α-amylase): 0.20 µmol | ratio of PC C1 to α-amylase ([6]; 20 μM α-amylase): 18 | adsorption of PC C1 on the surface of α-amylase ([6]; 20 μM α-amylase): 0.28 µmol | PC C1 signal intensities after addition of α-amylase ([6]; 1 mM PC C1, 10 μM α-amylase): 73% | PC C1 signal intensities after addition of α-amylase ([6]; 1 mM PC C1, 20 μM α-amylase): 63%
